Measured values published in patent publication EP2729445B1, “CYCLIC AMINE DERIVATIVES AS EP4 RECEPTOR ANTAGONISTS” (Rottapharm Biotech S.r.l., priority 2011, dated 2013).

Legend:
[1] = Pharmacokinetics after intravenous and oral treatment, plasma LC-MS/MS; type: in vivo, male Han Wistar rats; settings: rat, 1 mg/kg; for AUC(0-inf): extrapolated to infinity
Protocol: The pharmacokinetics of compounds E7, E17 and E18, were studied in male Han Wistar rats. The rats were treated intravenously and orally (n=3 for each dose route) with compounds formulated as solutions. The rats were fitted with a jugular cannula for serial sampling. A full profile was acquired from each rat. Plasma extracts were quantitatively analyzed using a specific and sensitive LC-MS/MS bioanalytical method. Inter-individual variations between the three rats in each group were limited (CV for pharmacokinetic parameters was below 50%). […] A range of clearance values were obtained for the different structure, ranging from low to moderate values (from 43 to 250 ml/h). After oral administration, absorption was quite fast with a clear maximum concentration reached by the first sampling time-point of 15 minutes for all compounds.

hEP4 receptors [2] = target: T1, hEP4 receptors (Homo sapiens, UniProt P35408); experiment: cAMP assay (AlphaScreen) on human EP4 membrane of transfected cells, antagonism of PGE2; type: biochemical; settings: HEK293 cell membrane stimulated with PGE2 3nM; read-out: functional IC50
T1 construct: membrane fraction used
Protocol: (§1) The cDNA clone of human EP4 receptor (NM_000958.2) was obtained from InvitrogenTM: Ultimate™ ORF Clone Collection - Clone ID IOH46525. The coding sequence was subcloned in expression vector pcDNATM6.2/V5-DEST by Gateway technology (InvitrogenTM). Human embryonic kidney cells (HEK-293) were stably transfected with expression vector for human EP4 receptor in according to the method described in FuGENE®6 Transfection Reagent's manual (Roche Applied Science®).
(§2) The EP4 transfected cells were grown in Dulbecco's modified Eagle's medium containing 10% fetal bovine serum and 10 µg/ml Blasticidin S HCl (selection medium) at 37°C in a humidified atmosphere of 5% CO2 in air. For the membrane preparation, cells in flask were harvested by hypotonical/mechanical lysis with chilled (4°C) TE buffer (5mM TRIS, 5mM ethylenediamine tetra-acetic acid (EDTA), pH 7.4). Cells were detached and lysed with 10ml of hypotonic lysis buffer and by scraping. The cell lysate was vortexed for 30 sec and centrifuged at 40000x g at 4°C for 22min.
The assay is based on the competition between endogenous cAMP and exogenously added biotinylated cAMP. The capture of cAMP is achieved by using a specific antibody conjugated to Donor beads. Cell membranes prepared as described above, were resuspended in 1 ml stimulation buffer (HBSS 1X + BSA 0.1% + IBMX 0.5mM + HEPES 5mM + MgCl2 10mM + GTP 1 nM + GDP 10µM + ATP 100µM - pH 7.4). Cell membranes were dispensed into white 384-well microplates at final concentration of 1µg/well and used for the determination of cAMP with the alphascreen cAMP functional assay (EnVision - PerkinElmer). Cell membrane/anti-cAMP Acceptor beads mix (5 µl) and a mixture of analysed compounds (dissolved in 100% DMSO to a final maximal concentration of 0.01% DMSO)/PGE2 (5 µl) were incubated at room temperature (22-23°C) for 30 min in the dark. The Biotinylated-cAMP and donor beads (15 µl) were dispensed into each well to start the competition reaction. After 1 h incubation RT (22-23°C) in the dark the plate was read using EnVision platform to determine the cAMP level (excitation: 680nm; emission:520,620nm). In each experiment:
cAMP standard curve (concentration range from 1x10-6 to 1x10-11 M in log intervals) with a negative control (no cAMP)
a positive control: forskolin 10µM
Antagonism studies were performed stimulating HEK293 cell membrane with PGE2 3nM. The AlphaScreen signal is plotted as a function of log concentration of cAMP and functional IC50 is determined. IC50 value is calculated by linear regression.

hEP4 receptors [3] = target: T1, hEP4 receptors; experiment: [3H]-Prostaglandin E2 membrane binding assay; settings: read-out: Binding pKi (converted)
Protocol: as §1, §2
The membrane pellet was resuspended in the same buffer (5mM TRIS, 5mM ethylenediamine tetra-acetic acid (EDTA), pH 7.4), and protein concentration was determined by Bradford method (Bio-Bad® assay). This membrane preparation was stored at -80°C freezer until use for binding assay. ([^3H]-PGE2) membranes binding assays toward hEP4 receptors (human EP4/HEK293 transfectant, see above) and hEP2 receptors (human EP2/HEK293 transfectant, purchased from PerkinElmer Inc) were performed in 10 mM MES-KOH buffer pH6, containing 10 mM MgCl2 and 1 mM CaCl2 for EP4 binding assay or 50 mM Tris-Cl, BSA 0.5% for EP2 binding assay (according to supplier indication) . Ten microgram of protein from membrane fractions were incubated in a total volume of 0.1ml (EP4) or 0.2ml (EP2) with 1nM (EP4) or 3nM (EP2) [^3H]-PGE2 (PerkinElmer Inc, 171Ci/mmol). In both assays to determine the total binding or non specific binding, 1% DMSO or 1µM prostaglandin E2 (EP4) or 100 µM (EP2) were added to reaction mixtures, respectively. Incubation was conducted in a polypropylene 96 multiwell for 90 min (EP4) or 60 min (EP2) at room temperature prior to separation of the bound and free radioligand by vacuum manifold rapid filtration on glass fiber filters (Unifilter GFB96, PerkinElmer Inc) pre-soaked in 0.3% polyethyleneimine. Filters were washed with ice cold buffer pH 7.4 (50mM HEPES, NaCl 500mM, BSA 0.1% for EP4 binding assay or 50mM Tris-Cl for EP2 binding assays) and the residual [^3H]-PGE2 binding determined by solid scintillation counter (TopCount , PerkinElmer Inc).
The affinity (Ki) of each compound was calculated according to the Cheng-Prousoff equation: Ki = IC50/(1+([C]/Kd)). Results were expressed as pKi (- log10 Ki (M)

T1 sequence (P35408 whole entry): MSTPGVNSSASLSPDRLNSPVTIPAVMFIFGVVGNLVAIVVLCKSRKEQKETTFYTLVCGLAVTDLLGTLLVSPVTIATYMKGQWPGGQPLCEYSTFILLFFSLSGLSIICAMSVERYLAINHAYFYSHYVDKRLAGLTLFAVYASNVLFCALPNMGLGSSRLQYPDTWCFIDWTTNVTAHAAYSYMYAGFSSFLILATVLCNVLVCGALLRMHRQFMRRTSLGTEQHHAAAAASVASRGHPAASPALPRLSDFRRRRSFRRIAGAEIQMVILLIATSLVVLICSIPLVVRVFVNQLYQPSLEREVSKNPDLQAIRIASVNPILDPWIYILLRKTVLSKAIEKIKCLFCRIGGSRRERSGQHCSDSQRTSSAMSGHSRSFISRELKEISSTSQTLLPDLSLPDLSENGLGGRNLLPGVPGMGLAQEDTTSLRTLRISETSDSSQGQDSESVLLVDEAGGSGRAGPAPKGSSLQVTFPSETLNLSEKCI

SMILES: O=C(O)c1ccc(C2(NC(=O)[C@H]3CC(F)(F)CCN3Cc3ccc(C(F)(F)F)cc3)CC2)cc1 [Example E17, (R)-4-(1-(4,4-difluoro-1-(4-(trifluoromethyl)benzyl)piperidine-2-carboxamido)cyclopropyl)benzoic acid]
- AUC(0-t) ([1]; male, Han Wistar, plasma, iv): 966 ng·h/mL
- AUC(0-inf) ([1]; male, Han Wistar, plasma, iv): 1040 ng·h/mL
- half-life ([1]; male, Han Wistar, plasma, iv, extrapolated, indicative only): 7.3 h
- clearance ([1]; male, Han Wistar, plasma, iv, extrapolated, indicative only, read-out: CLp* (converted)): 4.22 mL/min
- Vd ([1]; male, Han Wistar, plasma, iv, extrapolated, indicative only, read-out: Vss*): 1.79 L
- AUC(0-t) ([1]; male, Han Wistar, plasma, po): 823 ng·h/mL
- Cmax ([1]; male, Han Wistar, plasma, po): 318 ng/mL
- Tmax ([1]; male, Han Wistar, plasma, po): 0.5 h
- AUC(0-inf) ([1]; male, Han Wistar, plasma, po): 1080 ng·h/mL
- half-life ([1]; male, Han Wistar, plasma, po, extrapolated, indicative only): 14.1 h
- bioavailability ([1]; male, Han Wistar, plasma, po): 85%
- Tlast ([1]; po): 24 h
- IC50 (hEP4 receptors [2]): 28 nM
- Ki (hEP4 receptors [3]): 12.6 nM
